Assay results from ChEMBL document CHEMBL1201862, “PubChem BioAssay data set” (2004).
Active and inactive are the calls of the source.

Columns and labels:
[1] = target: Peroxisome proliferator-activated receptor gamma/Nuclear receptor coactivator 2 (Homo sapiens, UniProt P37231); type: functional;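 further: agonist potency for raising coactivator recruitment to the receptor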
[2] = target: Peroxisome proliferator-activated receptor gamma/Nuclear receptor coactivator 1 (Homo sapiens, UniProt P37231); type: functional;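 further: agonist potency as compounds enhance coactivator SRC-1 recruitment to PPARgamma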
[3] = target: Peroxisome proliferator-activated receptor gamma/Nuclear receptor coactivator 3 (Homo sapiens, UniProt P37231); type: functional;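 further: agonist potency for raising coactivator recruitment to the receptor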
[4] = target: T1, Heat shock 70 kDa protein 1A (Homo sapiens, UniProt P0DMV8); experiment: Hsp70 inhibitors, biochemical, TR-FRET (AID 786)
[5] = target: T1, Heat shock 70 kDa protein 1A; experiment: Hsp70 inhibitors, probe displacement, primary screen, biochemical, fluorescence polarization (AID 583)
[6] = target: Aspartyl aminopeptidase (Plasmodium falciparum 3D7, UniProt Q8I2J3)
[7] = target: Procathepsin L (Homo sapiens, UniProt P07711)
[8] = target: T2, Estrogen receptor (Homo sapiens, UniProt P03372);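 further: potency for inhibiting coactivator peptide recruitment to the receptor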
T2 sequence (P03372 whole entry): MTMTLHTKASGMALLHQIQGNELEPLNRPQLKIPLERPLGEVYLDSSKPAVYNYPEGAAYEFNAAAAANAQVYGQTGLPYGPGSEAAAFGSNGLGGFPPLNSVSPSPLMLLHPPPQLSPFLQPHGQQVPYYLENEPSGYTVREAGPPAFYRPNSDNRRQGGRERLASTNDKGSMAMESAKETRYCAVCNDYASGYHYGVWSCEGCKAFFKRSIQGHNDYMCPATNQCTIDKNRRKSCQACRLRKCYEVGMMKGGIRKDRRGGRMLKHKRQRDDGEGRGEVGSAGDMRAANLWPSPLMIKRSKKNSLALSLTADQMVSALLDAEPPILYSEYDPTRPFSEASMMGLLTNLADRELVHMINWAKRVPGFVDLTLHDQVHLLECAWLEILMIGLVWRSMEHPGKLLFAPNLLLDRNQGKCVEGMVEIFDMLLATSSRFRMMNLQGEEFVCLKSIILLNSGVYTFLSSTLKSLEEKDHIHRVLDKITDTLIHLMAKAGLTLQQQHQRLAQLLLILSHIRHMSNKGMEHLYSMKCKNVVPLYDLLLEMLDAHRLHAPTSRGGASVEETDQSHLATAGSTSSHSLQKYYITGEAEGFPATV

[9] = target: T2, Estrogen receptor; experiment: ERα–SRC-3 coactivator interaction inhibitors, confirmation, orthogonal assay, biochemical, ELISA, streptavidin-HRP readout (AID 1079)
[10] = target: Estrogen receptor beta (Homo sapiens, UniProt Q92731); experiment: ERβ–SRC-3 coactivator interaction inhibitors, confirmation, orthogonal assay, biochemical, ELISA, streptavidin-HRP readout (AID 1060)
[11] = target: Luciferin 4-monooxygenase (Photinus pyralis, UniProt P08659); experiment: Counter Screen for Luciferase-based Assay Positives. [Related pubchem assays: 620, 618, 411 ]
[12] = tested on: HT-1080; experiment: cytotoxicity in HT1080 fibrosarcoma cells, cell-based, fluorescence readout (AID 620); type: functional; settings: Homo sapiens
[13] = cytotoxicity in HEK-293T cells, dose response, cytotoxicity control for TCR NF-kB inhibitor project, luminescence, T-cell screen hits (AID 489026); type: functional, cell-based;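 further: cells exposed to compound about 14 hours before the viability readout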
[14] = inhibitors of HIV Env-driven cell fusion, dose response, cherry-pick (AID 652057); type: functional, cell-based
[15] = ZM109 Env clade C HIV-1 fusion inhibitors, dose response, HeLa effector, CEM target cells, luciferase, cherry-pick (AID 652058); type: functional, cell-based
[16] = off-target signal loss in HeLa-CEM21 co-culture – HeLa F-luc CTL cells, cherry-picked, counter-screen for HIV-1 Env fusion inhibitor project, dose response (AID 652040); type: functional, cell-based;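 further: potency for signal decrease marking cytotoxic or nonspecific inhibition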
[17] = inhibitors of clade B AD8 Env fusion, dose response, cell-based, cherry-pick (AID 652062); type: functional;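 further: luciferase signal from cell-cell fusion driven by HIV-1 clade B AD8 Env; potency is for inhibitors of fusion seen as a drop in luminescence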
[18] = tested on: Streptococcus sp. 'group A'; experiment: growth inhibition of control SK(-) GAS strain, dose response, counter-screen for streptokinase expression inhibitor project, luminescence, kanamycin, BacTiterGlo, confirmation (AID 1900); type: functional, organism-based
[19] = tested on: Streptococcus; experiment: Luminescence Microorganism-Based Dose Response Follow up to Identify Compounds Cytotoxic to Streptococcus. [Related pubchem assays: 1677 (Project Summary), 1915, 1914, 1902 (Retest at Dose), 1900 (Counter Screen), 1662 (Primary HTS)]; type: functional, organism-based
[20] = target: T3, Streptokinase A (Streptococcus pyogenes serotype M1, UniProt P10520); experiment: S. pyogenes streptokinase expression inhibitors, potency, dose response, plasminogen activation absorbance, OD405 (AID 1914); type: functional, Streptococcus pyogenes M1 GAS;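 further: secreted streptokinase activity via plasminogen activation per viability signal from cell pellet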
T3 sequence (P10520 whole entry): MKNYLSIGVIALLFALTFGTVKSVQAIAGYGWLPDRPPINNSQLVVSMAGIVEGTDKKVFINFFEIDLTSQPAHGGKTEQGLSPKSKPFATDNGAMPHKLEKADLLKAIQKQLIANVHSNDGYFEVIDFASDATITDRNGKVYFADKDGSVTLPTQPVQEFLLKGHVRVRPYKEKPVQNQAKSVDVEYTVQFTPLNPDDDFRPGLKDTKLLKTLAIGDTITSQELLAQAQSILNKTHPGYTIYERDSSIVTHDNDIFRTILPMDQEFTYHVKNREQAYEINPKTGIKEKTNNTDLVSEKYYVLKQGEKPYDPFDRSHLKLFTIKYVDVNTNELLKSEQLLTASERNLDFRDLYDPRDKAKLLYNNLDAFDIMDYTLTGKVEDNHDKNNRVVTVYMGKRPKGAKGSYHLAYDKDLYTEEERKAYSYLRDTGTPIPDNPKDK

[21] = target: Epstein-Barr nuclear antigen 1 (Epstein-Barr virus (strain B95-8) (HHV-4) (Human herpesvirus 4), UniProt P03211); experiment: EBNA-1 inhibitors, dose response, biochemical, fluorescence polarization, 1536-well (AID 2381); set-up: species or system human gammaherpesvirus 4;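 further: fluorescence polarization of a Cy5 DNA probe bound by EBNA-1 protein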
[22] = target: Lytic switch protein BZLF1 (Epstein-Barr virus (strain B95-8) (HHV-4) (Human herpesvirus 4), UniProt P03206); experiment: EBV ZTA inhibitors, dose response, counter-screen for EBNA-1 inhibitor project, biochemical, fluorescence polarization, Epstein-Barr virus, 1536-well (AID 2377); set-up: species or system human gammaherpesvirus 4;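 further: fluorescence polarization of Cy5-labelled ZRE DNA probe bound by purified Zta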
[23] = tested on: Streptococcus; experiment: Group A Streptococcus viability loss, dose response, counter-screen for streptokinase expression inhibitor project, luminescence, BacTiterGlo (AID 1915); type: functional, organism-based;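 further: potency for reduction of bacterial viability or growth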
[24] = target: Cytochrome P450 2C9 (Homo sapiens, UniProt P11712); settings: Potency
[25] = target: G2/mitotic-specific cyclin-B1 (Homo sapiens, UniProt P14635); experiment: Counterscreen assay for inhibitors of Wee1 degradation: dose response cell-based assay to identify inhibitors of cyclin B degradation. [Related pubchem assays: 1410, 1321 ]; type: functional
[26] = target: Wee1-like protein kinase (Homo sapiens, UniProt P30291); experiment: Dose Response Cell-based Assay for Inhibitors of Wee1 Degradation. [Related pubchem assays: 1410, 1321 ]; type: functional
[27] = target: G-protein coupled receptor 55 (Homo sapiens, UniProt Q9Y2T6); experiment: GPR55 antagonists blocking LPI-driven arrestin recruitment, primary screen, imaging, U2OS, beta-arrestin-GFP, LPI agonist (AID 2013); type: functional;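 further: antagonist potency measured as reduced agonist-driven arrestin aggregation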
[28] = target: T4, Aminopeptidase N (Plasmodium falciparum FcB1/Columbia, UniProt O96935); experiment: P. falciparum M1AAP inhibitors, biochemical, fluorogenic H-Leu-NHMec substrate, 1536-well (AID 1445); set-up: species or system Plasmodium falciparum 3D7, 3D7
T4 sequence (O96935 whole entry): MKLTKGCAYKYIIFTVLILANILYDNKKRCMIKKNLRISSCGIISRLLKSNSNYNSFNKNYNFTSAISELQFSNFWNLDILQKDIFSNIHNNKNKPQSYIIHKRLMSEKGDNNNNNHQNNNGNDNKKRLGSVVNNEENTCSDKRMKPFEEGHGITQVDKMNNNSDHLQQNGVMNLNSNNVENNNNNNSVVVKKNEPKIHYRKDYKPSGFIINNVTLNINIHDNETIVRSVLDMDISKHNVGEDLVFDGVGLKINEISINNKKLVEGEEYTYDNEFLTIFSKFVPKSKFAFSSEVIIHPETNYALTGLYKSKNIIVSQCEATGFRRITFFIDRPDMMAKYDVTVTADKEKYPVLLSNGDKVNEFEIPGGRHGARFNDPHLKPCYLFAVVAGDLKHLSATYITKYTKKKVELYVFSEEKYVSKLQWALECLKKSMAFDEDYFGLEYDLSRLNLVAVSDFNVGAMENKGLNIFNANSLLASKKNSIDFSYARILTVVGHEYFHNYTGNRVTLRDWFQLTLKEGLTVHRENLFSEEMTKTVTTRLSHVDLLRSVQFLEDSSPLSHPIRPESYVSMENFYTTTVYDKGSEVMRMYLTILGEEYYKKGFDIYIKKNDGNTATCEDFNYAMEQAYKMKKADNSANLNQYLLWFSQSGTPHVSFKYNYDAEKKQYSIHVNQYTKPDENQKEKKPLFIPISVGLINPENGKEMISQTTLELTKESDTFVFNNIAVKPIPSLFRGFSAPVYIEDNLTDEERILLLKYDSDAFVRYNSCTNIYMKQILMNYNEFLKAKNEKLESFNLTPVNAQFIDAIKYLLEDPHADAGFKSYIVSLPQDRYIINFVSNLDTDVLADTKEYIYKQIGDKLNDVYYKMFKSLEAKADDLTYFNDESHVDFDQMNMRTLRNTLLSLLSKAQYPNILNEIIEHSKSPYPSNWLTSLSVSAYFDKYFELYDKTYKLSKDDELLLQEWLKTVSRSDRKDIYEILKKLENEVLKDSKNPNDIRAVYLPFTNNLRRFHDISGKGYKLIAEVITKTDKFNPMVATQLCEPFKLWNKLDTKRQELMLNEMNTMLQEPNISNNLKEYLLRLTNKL

[29] = target: Transitional endoplasmic reticulum ATPase (Homo sapiens, UniProt P55072, C522A); experiment: C522A mutant p97 ATPase inhibitors, dose response, counter-screen for p97 inhibitor project, biochemical, luminescence (AID 1544)
[30] = target: Transitional endoplasmic reticulum ATPase (Homo sapiens, UniProt P55072); experiment: p97 ATPase inhibitors, dose response, biochemical (AID 1534)
[31] = target: Induced myeloid leukemia cell differentiation protein Mcl-1 (Homo sapiens, UniProt Q07820); type: functional
[32] = target: T5, Probable nicotinate-nucleotide adenylyltransferase (Staphylococcus aureus (strain N315), UniProt P65502); type: functional, Staphylococcus aureus subsp. aureus N315;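 on IC50 Mean: confirmatory dose-response retesting of NadD inhibitor hits first found in an ultra-high-throughput screen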
[33] = target: T5, Probable nicotinate-nucleotide adenylyltransferase; type: functional, Staphylococcus aureus subsp. aureus N315; settings: read-out: IC50_Mean
[34] = target: Cytochrome P450 3A4 (Homo sapiens, UniProt P08684); settings: Potency;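 further: confirmatory qHTS run detecting inhibitors and substrates of CYP3A4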

T1 sequence (P0DMV8 whole entry): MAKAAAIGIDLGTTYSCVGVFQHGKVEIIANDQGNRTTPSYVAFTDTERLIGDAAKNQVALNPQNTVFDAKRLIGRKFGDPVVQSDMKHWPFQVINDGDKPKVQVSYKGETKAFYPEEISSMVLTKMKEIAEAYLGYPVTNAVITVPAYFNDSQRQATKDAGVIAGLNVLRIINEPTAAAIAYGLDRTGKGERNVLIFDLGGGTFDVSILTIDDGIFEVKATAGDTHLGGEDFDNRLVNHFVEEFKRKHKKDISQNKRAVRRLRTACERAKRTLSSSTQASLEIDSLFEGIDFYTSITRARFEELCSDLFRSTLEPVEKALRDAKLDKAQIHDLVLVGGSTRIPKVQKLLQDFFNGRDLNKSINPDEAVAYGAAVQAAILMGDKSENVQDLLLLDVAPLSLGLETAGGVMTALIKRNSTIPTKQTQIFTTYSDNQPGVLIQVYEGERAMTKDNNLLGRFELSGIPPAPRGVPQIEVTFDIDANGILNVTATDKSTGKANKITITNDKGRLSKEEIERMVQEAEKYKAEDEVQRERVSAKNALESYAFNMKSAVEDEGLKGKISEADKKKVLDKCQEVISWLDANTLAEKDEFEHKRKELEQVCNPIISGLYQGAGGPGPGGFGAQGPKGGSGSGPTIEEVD
T5 sequence (P65502 whole entry): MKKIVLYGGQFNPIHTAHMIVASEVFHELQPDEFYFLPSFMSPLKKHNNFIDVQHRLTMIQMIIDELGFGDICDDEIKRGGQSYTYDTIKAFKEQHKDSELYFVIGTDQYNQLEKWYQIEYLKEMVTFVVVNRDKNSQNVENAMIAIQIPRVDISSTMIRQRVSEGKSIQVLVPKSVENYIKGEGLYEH
Sequence of Wee1-like protein kinase (P30291 whole entry): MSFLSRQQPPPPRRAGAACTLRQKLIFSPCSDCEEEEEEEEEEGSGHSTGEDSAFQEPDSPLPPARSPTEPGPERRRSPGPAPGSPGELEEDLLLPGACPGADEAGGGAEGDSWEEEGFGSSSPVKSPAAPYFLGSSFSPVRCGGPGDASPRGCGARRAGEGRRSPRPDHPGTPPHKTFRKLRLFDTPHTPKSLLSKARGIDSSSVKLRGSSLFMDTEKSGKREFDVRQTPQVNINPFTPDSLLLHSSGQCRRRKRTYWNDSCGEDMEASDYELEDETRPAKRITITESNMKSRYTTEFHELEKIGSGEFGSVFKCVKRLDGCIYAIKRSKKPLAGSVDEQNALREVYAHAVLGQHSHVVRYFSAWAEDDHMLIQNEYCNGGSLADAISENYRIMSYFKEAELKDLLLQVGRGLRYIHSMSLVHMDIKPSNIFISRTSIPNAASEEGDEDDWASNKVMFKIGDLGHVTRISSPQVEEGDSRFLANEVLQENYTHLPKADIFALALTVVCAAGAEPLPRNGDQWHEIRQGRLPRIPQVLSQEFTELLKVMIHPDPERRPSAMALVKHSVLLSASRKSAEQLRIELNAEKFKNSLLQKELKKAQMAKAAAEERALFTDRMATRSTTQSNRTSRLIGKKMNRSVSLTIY
Sequence of Epstein-Barr nuclear antigen 1 (P03211 whole entry): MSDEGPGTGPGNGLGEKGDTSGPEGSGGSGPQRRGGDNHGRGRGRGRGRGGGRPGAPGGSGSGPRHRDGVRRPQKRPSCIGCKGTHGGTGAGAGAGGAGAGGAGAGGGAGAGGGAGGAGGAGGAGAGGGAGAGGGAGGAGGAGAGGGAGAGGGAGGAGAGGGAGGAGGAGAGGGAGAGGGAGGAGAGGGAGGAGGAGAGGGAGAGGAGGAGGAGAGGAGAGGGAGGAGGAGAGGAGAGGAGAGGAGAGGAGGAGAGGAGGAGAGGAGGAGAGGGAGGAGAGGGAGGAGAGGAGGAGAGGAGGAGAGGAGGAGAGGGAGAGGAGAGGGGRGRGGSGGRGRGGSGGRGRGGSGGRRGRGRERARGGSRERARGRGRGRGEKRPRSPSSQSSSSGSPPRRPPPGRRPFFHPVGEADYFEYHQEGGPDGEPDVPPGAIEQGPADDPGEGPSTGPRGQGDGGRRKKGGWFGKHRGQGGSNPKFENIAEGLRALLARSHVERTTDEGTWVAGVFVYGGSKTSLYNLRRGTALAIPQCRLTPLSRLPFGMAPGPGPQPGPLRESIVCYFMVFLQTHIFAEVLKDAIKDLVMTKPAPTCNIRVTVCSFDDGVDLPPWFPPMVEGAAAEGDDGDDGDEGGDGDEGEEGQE
Sequence of Luciferin 4-monooxygenase (P08659 whole entry): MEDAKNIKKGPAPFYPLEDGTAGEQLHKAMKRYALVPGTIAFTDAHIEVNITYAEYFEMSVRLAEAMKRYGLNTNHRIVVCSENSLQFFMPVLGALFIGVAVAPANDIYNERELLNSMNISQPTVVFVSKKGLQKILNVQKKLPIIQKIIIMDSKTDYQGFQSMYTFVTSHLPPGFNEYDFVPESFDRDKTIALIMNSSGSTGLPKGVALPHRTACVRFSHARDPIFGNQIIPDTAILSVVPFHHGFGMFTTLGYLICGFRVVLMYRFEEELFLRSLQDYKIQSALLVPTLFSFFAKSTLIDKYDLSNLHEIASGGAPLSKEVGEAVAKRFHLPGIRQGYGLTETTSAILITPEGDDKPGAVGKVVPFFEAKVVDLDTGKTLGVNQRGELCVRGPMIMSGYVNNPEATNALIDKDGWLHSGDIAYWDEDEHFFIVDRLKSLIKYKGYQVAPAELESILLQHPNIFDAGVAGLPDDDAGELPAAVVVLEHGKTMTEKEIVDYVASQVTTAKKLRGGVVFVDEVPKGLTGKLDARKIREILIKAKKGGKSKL
Sequence of Procathepsin L (P07711 whole entry): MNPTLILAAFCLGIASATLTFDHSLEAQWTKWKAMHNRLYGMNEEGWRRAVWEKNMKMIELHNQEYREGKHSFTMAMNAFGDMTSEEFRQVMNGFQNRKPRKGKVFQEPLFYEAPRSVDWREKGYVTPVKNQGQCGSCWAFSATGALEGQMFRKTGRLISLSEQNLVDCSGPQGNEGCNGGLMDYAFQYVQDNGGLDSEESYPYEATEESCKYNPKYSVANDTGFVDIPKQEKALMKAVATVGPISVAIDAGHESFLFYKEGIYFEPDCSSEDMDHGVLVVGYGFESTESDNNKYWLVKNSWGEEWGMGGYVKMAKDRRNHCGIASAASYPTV
Sequence of Transitional endoplasmic reticulum ATPase (Homo sapiens, UniProt P55072, C522A) (P55072 2-806 C522A limits assumed): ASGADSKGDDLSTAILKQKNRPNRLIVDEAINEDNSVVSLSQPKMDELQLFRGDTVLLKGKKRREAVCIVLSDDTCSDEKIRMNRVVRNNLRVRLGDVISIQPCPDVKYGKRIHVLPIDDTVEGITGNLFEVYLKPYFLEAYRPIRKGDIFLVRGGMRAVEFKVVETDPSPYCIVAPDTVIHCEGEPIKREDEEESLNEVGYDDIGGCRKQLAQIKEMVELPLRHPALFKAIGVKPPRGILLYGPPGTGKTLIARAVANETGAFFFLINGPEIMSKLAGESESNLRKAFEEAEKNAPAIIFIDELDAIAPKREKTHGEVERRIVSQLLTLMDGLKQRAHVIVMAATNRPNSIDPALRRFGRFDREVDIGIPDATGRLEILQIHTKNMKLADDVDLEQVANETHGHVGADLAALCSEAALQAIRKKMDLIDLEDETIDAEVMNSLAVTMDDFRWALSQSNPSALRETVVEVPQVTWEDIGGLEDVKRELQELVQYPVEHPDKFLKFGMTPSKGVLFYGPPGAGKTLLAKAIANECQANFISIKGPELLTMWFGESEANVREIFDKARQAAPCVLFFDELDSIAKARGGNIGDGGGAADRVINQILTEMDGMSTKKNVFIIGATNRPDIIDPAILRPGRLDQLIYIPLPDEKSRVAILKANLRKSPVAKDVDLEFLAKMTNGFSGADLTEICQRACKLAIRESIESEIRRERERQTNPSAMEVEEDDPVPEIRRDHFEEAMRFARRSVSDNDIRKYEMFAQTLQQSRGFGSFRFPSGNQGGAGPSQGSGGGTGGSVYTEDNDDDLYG
Sequence of Transitional endoplasmic reticulum ATPase (Homo sapiens, UniProt P55072) (P55072 whole entry): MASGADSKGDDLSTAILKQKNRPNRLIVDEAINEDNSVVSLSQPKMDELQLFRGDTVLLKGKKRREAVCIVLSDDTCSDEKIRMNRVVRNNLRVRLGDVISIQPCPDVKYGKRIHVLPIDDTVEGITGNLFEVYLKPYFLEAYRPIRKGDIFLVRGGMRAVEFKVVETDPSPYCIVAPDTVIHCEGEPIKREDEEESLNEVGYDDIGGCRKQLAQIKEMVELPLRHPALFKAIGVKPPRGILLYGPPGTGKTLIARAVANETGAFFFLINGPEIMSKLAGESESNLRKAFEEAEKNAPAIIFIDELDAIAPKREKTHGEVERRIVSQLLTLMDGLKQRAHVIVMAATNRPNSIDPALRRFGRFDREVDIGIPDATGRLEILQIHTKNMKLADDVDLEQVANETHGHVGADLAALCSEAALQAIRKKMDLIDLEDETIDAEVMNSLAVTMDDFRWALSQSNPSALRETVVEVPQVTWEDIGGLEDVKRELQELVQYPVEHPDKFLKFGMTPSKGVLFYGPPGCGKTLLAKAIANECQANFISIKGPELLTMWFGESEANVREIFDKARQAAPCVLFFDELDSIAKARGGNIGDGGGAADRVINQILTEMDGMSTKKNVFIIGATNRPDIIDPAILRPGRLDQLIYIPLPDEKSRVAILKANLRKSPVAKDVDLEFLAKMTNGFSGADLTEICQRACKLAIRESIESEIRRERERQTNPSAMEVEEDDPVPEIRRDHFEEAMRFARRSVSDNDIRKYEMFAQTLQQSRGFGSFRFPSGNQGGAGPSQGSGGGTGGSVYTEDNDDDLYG
Sequence of Induced myeloid leukemia cell differentiation protein Mcl-1 (Q07820 whole entry): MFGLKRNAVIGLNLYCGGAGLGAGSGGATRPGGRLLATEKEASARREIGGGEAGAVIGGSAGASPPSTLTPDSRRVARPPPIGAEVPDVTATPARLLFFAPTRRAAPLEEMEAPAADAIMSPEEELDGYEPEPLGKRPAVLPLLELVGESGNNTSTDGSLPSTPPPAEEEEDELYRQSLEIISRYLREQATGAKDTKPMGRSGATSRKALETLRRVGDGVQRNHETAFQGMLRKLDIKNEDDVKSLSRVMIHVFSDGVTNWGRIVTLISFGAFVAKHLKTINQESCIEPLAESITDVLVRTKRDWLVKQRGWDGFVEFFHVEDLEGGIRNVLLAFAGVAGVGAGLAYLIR

In the case of CCn1cc(CNCc2cn(C)nc2-c2ccc(C3CCCCC3)cc2)cn1, the EC50 [1] is reported as > 79.4 µM (not active), the EC50 [2] is reported as > 79.4 µM (not active) and the EC50 [3] is reported as > 79.4 µM (not active).

For CCOC(=O)N1CCN(CC(=O)Nc2cc(OCC)ccc2OCC)CC1, the IC50 [4] was > 100 µM (not active) and the IC50 [5] was > 100 µM (not active).

For O=C(Nc1ccc(Cl)cc1Cl)Nn1cnnc1, the IC50 [6] was 0.791 µM (active) and the IC50 [7] was > 59.6 µM (not active).

For O=C(CCCn1c(=S)[nH]c2ccccc2c1=O)N1CCN(c2cccc(Cl)c2)CC1, the IC50 [8] was 5.73 µM (active), the IC50 [9] was 0.12 µM (not active) and the IC50 [10] was > 50 µM (not active).

For Cc1ccc(C(=O)Nc2cccc(C(=O)O)c2)cc1, the EC50 [11] was 96.3 µM (active), the EC50 [12] was > 50 µM (not active) and the IC50 [13] was > 80 µM (inactive). The AC50 [14] was 1.38 µM (active), the AC50 [15] was 7.9 µM (active) and the AC50 [16] was 2.07 µM (active). For the same compound, the AC50 [17] was 4.84 µM (active).

In the case of O=[N+]([O-])c1ccccc1NCCNc1ncc(C(F)(F)F)cc1Cl, the EC50 [18] is reported as > 150 µM (not active), the EC50 [19] is reported as > 500 µM (not active) and the EC50 [20] is reported as 5.57 µM (active). For the same compound, the IC50 [21] was 16.8 µM (not active), the IC50 [22] was 23.5 µM (not active) and the EC50 [23] was > 150 µM (not active).

In the case of Clc1ccc([C@@H](c2ccccc2Cl)C(Cl)Cl)cc1, the AC50 [24] is reported as 15.8 µM (inconclusive).

For O=C(/C=C/c1cccnc1)/C=C/c1cccnc1, the EC50 [25] was > 49.7 µM (not active), the EC50 [26] was > 1.84 µM (active) and the IC50 [27] was 3.26 µM (active).

For O=c1cc(-c2ccc(O)c(-c3c(O)cc(O)c4c(=O)cc(-c5ccc(O)cc5)oc34)c2)oc2cc(O)cc(O)c12 [AMENTOFLAVONE], the IC50 [28] was 108 µM (active), the EC50 [18] was 1.68 µM (active) and the IC50 [29] was > 50 µM (not active). The EC50 [20] was > 150 µM (not active), the IC50 [30] was 8.98 µM (active) and the IC50 [31] was 1.63 µM (active). The EC50 [23] was > 150 µM (not active), the IC50 [32] was 9.38 µM (active) and the IC50 [33] was 29.4 µM (active).

With N#C/C(=C\c1ccc(O)cc1)C(=O)O [alpha-CYANO-4-HYDROXYCINNAMIC ACID] the AC50 [34] was 31.6 µM (inconclusive).
